Assay results from patent publication US9402820B2, “Use of pyruvate or succinate to enhance the efficacy of a hypoxia activated prodrug for the treatment of tumors” (THE UNITED STATES OF AMERICA AS REPRESENTED BY THE …, priority 2011, dated 2016).

Columns and labels:
[1] = test system: SCCVII (mouse squamous cell carcinoma) tumors; experiment: SCCVII tumor growth with TH-302 alone, pyruvate alone or in combination; type: in vivo; settings: daily for 3 days
Procedure: (§1) Mouse legs bearing tumors were prepared by subcutaneously injecting 5×10^5 SCCVII (mouse squamous cell carcinoma) cells or 1×10^6 HT29 (human colon cancer) cells to the hind leg of C3H or athymic nude mice, respectively. When tumor size became 400-500 mm^3, treatments were initiated. Mice were treated daily for 3 days with hypoxia-activated prodrug TH-302 (100 mg/kg/day, i.p.) alone, pyruvate (1.15 mmol/kg/day, i.v.) alone, or TH-302 injection 30 min. after pyruvate injection. Treatments were started on day 7 (SCCVII; FIG. 6A) or day 8 (HT29; FIG. 6B). […] Tumor growth (volume/size in mm^3) was measured daily by caliper.

[2] = test system: HT29 (human colon cancer) tumors; experiment: HT29 tumor growth with TH-302 alone or in combination with pyruvate; type: in vivo; settings: TH-302 100 mg/kg/day i.p., pyruvate 1.15 mmol/kg/day i.v. 30 min before, daily for 3 days
Procedure: as §1

SCCVII solid tumors [3] = experiment: EPR imaging (EPRI) of tumor pO2 after i.v. pyruvate in SCC tumor-bearing mice; type: in vivo, mouse; settings: for Median tumor pO2 value: before injection 11.8±1.3; for Percentage of hypoxic region (pO2<10 mmHg) in the tumors: before injection 39.7±9.8
Procedure: All animal experiments were carried out in compliance with the Guide for the care and use of laboratory animal resources (National Research Council, 1996) and approved by the National Cancer Institute Animal Care and Use Committee. Female C3H/Hen mice were supplied by the Frederick Cancer Research Center, Animal Production (Frederick, Md.). SCCVII solid tumors were formed by injecting 5×10^5 SCC cells subcutaneously into the right hind leg of C3H mice. Body weight measured before the experiments was 21-27 g. In EPRI and MRI measurements, mice were anesthetized by isoflurane (4% for induction and 2% for maintaining anesthesia) in medical air (750 mL/min) and positioned prone with their tumor-bearing legs placed inside the resonator. During the measurements, the breathing rate of the mice was monitored with a pressure transducer (SA Instruments Inc.) and maintained at 60±10 breaths per minute. Core body temperature was also monitored with a non-magnetic rectal temperature probe (FISO) and maintained at 37±1° C. with a flow of warm air. For administration of TAM and [1-^13C]pyruvate solution, a 30-gauge needle was cannulated into the tail vein and extended using polyethylene tubing (PE-10).
Technical details of the EPR scanner operating at 300 MHz, data acquisition based on the single-point imaging (SPI) modality, image reconstruction, and the oxygen mapping procedure were described previously (Matsumoto et al., Magn Reson Med, 55:1157-1163, 2006; and Matsumoto et al., J Clin Invest, 118:1965-1973, 2008). Isotonic [1-^13C]pyruvate solution (pH 7.4) was prepared by dissolving 30 μL of [1-^13C]pyruvic acid in 4.5 mL of alkaline solution containing 100 mg/L EDTA. After the mouse was placed in the resonator, TAM (OX063, GE Healthcare) was injected intravenously through the cannula placed in the tail vein. TAM was given as a 1.125 mmol/kg bolus followed by 0.04 mmol/kg/min continuous injection. After acquiring the first EPR data set, 1.15 mmol/kg bolus (300 μL of 96 mM) [1-^13C]pyruvate solution was injected intravenously through the cannula. EPRI measurements were carried out 30 minutes and 1 hour after [1-^13C]pyruvate injection. Then, the mouse was released. The mouse was anesthetized and canulated again, 1.125 mmol/kg TAM was injected to the mouse, and EPRI measurement was carried out 5 hours after the [1-^13C]pyruvate injection.
EPR signals were collected following the RF excitation pulses (60 ns, 80 W, 70° flip angle) using an analog digital converter (200 Msamples/s). EPR measurements were started 3 minutes after TAM injection, and it took 9 minutes to obtain a data set for a 3D image. The repetition time (TR) was 6.0 μs. The FIDs (free induction decays) were collected under a nested looping of the x, y, z gradients and each time point in the FID underwent phase modulation enabling 3D spatial encoding. In order to get reproducible values of T2* and to retain a more or less uniform image resolution, a set of 3 gradients was used, and data for corresponding images were collected in an interleaved fashion (Matsumoto et al., Magn Reson Med, 55:1157-1163, 2006). If the power spectrum of the pulse is uniform throughout the k-space for all the gradients used, the spatial resolution is simply defined by FOV (field of view) and the number of k-samples (elements in k-space).
Anatomical images of the tumor-bearing leg were obtained using 7 T MRI after the EPRI measurements. […] An identical parallel coil resonator (17 mm inner diameter and 25 mm long) with Q switch was used for both EPRI and MRI operating at 300 MHz (Matsumoto et al., J Clin Invest, 118:1965-1973, 2008).
MRI scans were conducted using a 7 T scanner controlled with ParaVision 5.0 (Bruker BioSpin MRI GmbH). […]

SCCVII solid tumors [4] = experiment: Immunohistochemical analysis with hypoxia marker pimonidazole in SCC tumors; type: in vivo, mouse; settings: control mice 21.1±1.4, n=5
Procedure: A hypoxia marker, pimonidazole, was given to tumor-bearing mice intravenously 30 minutes before excising tumors. The mice were euthanized, and tumor tissues were removed from mice. The tumor tissues were fixed with 4% paraformaldehyde and frozen using ultracold ethanol. The frozen tumors were sectioned to 10 μm thick using a cryostat, and the sections were thaw-mounted on glass slides. After blocking non-specific binding sites with Protein Block Serum-Free reagent (Dako North America Inc., Carpinteria, Calif.), the slides were covered by rabbit anti-pimonidazole antisera (Natural Pharmacia International, Inc., Burlington, Mass.; 1:250) overnight at 4° C. The sections were incubated with Alexa Fluor 555 anti-rabbit secondary antibody (Invitrogen, Carlsbad, Calif.; 1:500). Then they were mounted on Prolong Gold antifade reagent with DAPI (Invitrogen). Fluorescence microscopic observation was performed using an Axiovert 200 inverted fluorescent microscope (Carl Zeiss), and images of tissues were captured using Image-Pro Plus Ver. 4.0 imaging software. The pimonidazole positive area was quantified using Image J software.

SCC tumor = experiment: Tumor growth after X-irradiation (12 Gy) with [1-13C]pyruvate injection; type: in vivo, mouse; settings: X-irradiation 12 Gy 30 minutes after [1-13C]pyruvate injection; X-irradiation without pyruvate 6-7 days
Source text: Mice were fixed in the specially designed jig for X-irradiation, by which mice were restricted from moving without anesthesia. X-irradiation (12 Gy) was delivered to tumor-bearing leg 6 days after SCC tumor implantation using a XRAD-320 (Precision X-ray Inc.).
Hypoxia is a critical factor that determines tumor resistance to radiotherapy and some kinds of chemotherapy. Although the pyruvate-induced hypoxia is transient, the decrease in oxygen concentration may limit the efficacy of cancer therapy, if the cancer treatments are provided immediately after MRI with hyperpolarized [1-^13C]pyruvate. To elucidate the effect of exogenously injected pyruvate on radiotherapy, tumor growth was monitored after X-irradiation with and without [1-^13C]pyruvate injection (FIG. 4). X-irradiation (12 Gy) without pyruvate administration suppressed the tumor growth for 6-7 days compared with non-treated control group which received neither X-irradiation nor pyruvate administration. […] Secondary mechanisms such as activation of hypoxia inducible transcription factor-1 signaling during the pyruvate-induced transient hypoxia might partially contribute to the long lasting effect of pyruvate on radiotherapy in addition to the direct effect of oxygen concentration at the time of radiation. […]

[5] = SCCVII, TH-302 100 mg/kg/day i.p., pyruvate 1.15 mmol/kg/day i.v. 30 min before

Row | SMILES | Period of time until tumor becomes 2 times original tumor size [1, 5] [days] | Period of time until tumor becomes 3 times original tumor size [1, 5] [days] | effect on SCCVII tumor growth ([1]; treatment starting 7 days post-tumor implantation) | Period of time until tumor becomes 3 times original tumor size [2] [days] | Period of time until tumor becomes 4 times original tumor size [2] [days] | median pO2 value in tumor (SCCVII solid tumors [3]; 1-2 hours after hyperpolarized [1-13C]pyruvate 1.15 mmol/kg i.v. bolus, control tumor group 11.7±0.7, mean±SEM, n=4) [mmHg] | hypoxic fraction (pixels with pO2<10 mm Hg) (SCCVII solid tumors [3]; 1-2 hours after hyperpolarized [1-13C]pyruvate 1.15 mmol/kg i.v., control tumors 37.1±5.6, mean±SEM, n=4) [%] | Median tumor pO2 value (SCCVII solid tumors [3]; 30 minutes after [1-13C]pyruvate 1.15 mmol/kg i.v., n=4) [mmHg] | decrease of tumor pO2 (SCCVII solid tumors [3]; 30 minutes after half dose (0.58 mmol/kg b. w.)) [%] | Percentage of hypoxic region (pO2<10 mmHg) in the tumors (SCCVII solid tumors [3]; 30 minutes after pyruvate 1.15 mmol/kg i.v.) [%] | Median tumor pO2 value (SCCVII solid tumors [3]; 1 hour after [1-13C]pyruvate 1.15 mmol/kg i.v., n=4) [mmHg] | Percentage of hypoxic region (pO2<10 mmHg) in the tumors (SCCVII solid tumors [3]; 1 hour after pyruvate 1.15 mmol/kg i.v.) [%] | Median tumor pO2 value (SCCVII solid tumors [3]; 5 hours after [1-13C]pyruvate 1.15 mmol/kg i.v., n=4) [mmHg] | Percentage of hypoxic region (pO2<10 mmHg) in the tumors (SCCVII solid tumors [3]; 5 hours after pyruvate 1.15 mmol/kg i.v.) [%] | Pimonidazole positive area in tumors (SCCVII solid tumors [4]; 1 hour after [1-13C]pyruvate injection) [%] | Pimonidazole positive area in tumors (SCCVII solid tumors [4]; 5 hours after [1-13C]pyruvate injection) [%] | delay in tumor growth (SCC tumor) [days]
1 | Cn1c(COP(=O)(NCCBr)NCCBr)cnc1[N+](=O)[O-] [TH-302] | 3.4 | 5.4 | minor or small effect | 6.8 | 8.4 | – | – | – | – | – | – | – | – | – | – | – | –
2 | CC(=O)C(=O)O [pyruvate, 2-oxopropanoate] | – | – | – | – | – | 9.2±1.1 | 58.5±10.2 | 5.8±0.6 | 32 | 68.5±3.0 | 7.7±0.6 | 63.8±2.6 | 11.6±1.2 | 43.9±5.7 | 29.5±2.9 | 18.7±1.8 | 3 to 4
